In patent US20250361490A1, “COMPOSITION AND METHOD FOR CRYOPRESERVATION OF MITOCHONDRIA” (cellvie AG, priority 2022, published 2025):

Tested on: isolated mitochondria from human cardiac fibroblast (HCF) cells
Experiment: Mitochondrial membrane potential assay (MitoTracker Red CMXRos / MitoTracker Green FM staining)
Type: cell-based
Conditions: single cryoprotectant at 5%, 10%, 20% (v/v) in trehalose-based isolation buffer; frozen on dry ice, thawed 37° C.; normalized to non-frozen control
Method: Procedure: Isolated mitochondria in the form of pellets were resuspended in two different isolation buffers containing respectively either 300 mM sucrose or 300 mM trehalose and then frozen in 1.5 ml Eppendorf tubes by placing them either in liquid nitrogen for approximately 1 minute or on dry ice for approximately 3 minutes. For thawing, the tubes were placed in a 37° C. water bath until the entire sample was thawed, and then immediately transferred on ice.
To assess the mitochondrial membrane potential, the isolated mitochondria were resuspended either in the sucrose-containing isolation buffer or in the trehalose-containing isolation buffer at 1 mg/ml, and 15 μg of mitochondrial suspension were used for each sample. Both non-frozen mitochondria and mitochondria frozen and thawed according to procedure described under section 2.2 were stored on ice until use, e.g., stored for a period of 5 minutes to maximum 60 minutes, preferably for a few minutes (e.g., for a period of maximum 15 minutes, such as 5 minutes or 10 minutes). For Mitotracker Red CMXRos/Mitotracker Green FM staining, a labelling solution was prepared, by adding 200 nM MitoTracker Red CMxROS and 200 nM MitoTracker Green FM (Thermo Fisher) in the isolation buffer. The isolated mitochondria were then suspended in 1 ml of the labelling solution, vortexed and incubated for 15 minutes in a 37° C. incubator. Mitochondria were sedimented by centrifugation at 9500 g for 5 minutes at 4° C., washed once with the respective isolation buffer, and resuspended in the isolation buffer at a concentration of 1 mg/ml. […] MitoTracker Red or MitoTracker Green signal was quantified using Keyence BZ-800 Analyzer software, integrated brightness per image was taken for calculations and averaged between images taken from one sample.
The effect of cryoprotectant addition on maintaining integrity of the inner mitochondrial membrane was studied using MitoTracker staining assay, as described in Example 2.3. […] Alle frozen samples were thawed in a 37° C. water bath and analyzed by MitoTracker staining.

Row | SMILES | integrity of the inner mitochondrial membrane (MitoTracker Red staining)
1 | OC[C@H]1O[C@@](CO)(O[C@H]2O[C@H](CO)[C@@H](O)[C@H](O)[C@H]2O)[C@@H](O)[C@@H]1O [CRYO25, D-(+)-Sucrose] | preserve mitochondria inner membrane integrity
2 | O.O=C[C@H](O)[C@@H](O)[C@H](O)[C@H](O)CO [CRYO33, D-(+)-Glucose monohydrate] | preserve mitochondria inner membrane integrity
3 | O=C(O)[C@@H]1CCCN1 [CRYO6, L-Proline] | preserve mitochondria inner membrane integrity
